{"source": "patent US20140206678A1", "about": "“INHIBITORS OF MTOR KINASE AS ANTI -VIRAL AGENT” (KADMON CORPORATION, LLC, priority 2011, published 2014)", "key": {"[1]": {"tested_on": "confluent human fibroblasts", "assay": "Trypan blue exclusion viability of confluent human fibroblasts (4-PBA)", "type": "cell-based", "conditions": "highest dose tested; eight days", "description": "FIG. 11. 4-PBA is not toxic to uninfected or infected confluent human fibroblasts. (A) Fibroblasts were maintained in medium containing the indicated concentrations of 4-PBA for 8 days. The medium was replaced every other day throughout the time course. At the end of the treatment period, cell viability was measured by the trypan blue exclusion assay. Date points represent the mean of duplicate wells. (B) Fibroblasts were infected with HCMV at a multiplicity of 0.1 pfu/cell. Cells were fed every other day with fresh medium containing the indicated concentration of 4-PBA. At eight days post infection, cells were washed once with media, and then media lacking drug was added. Eight days later (16 days post infection) cell free virus in the supernatant was quantitated by the TCID50 method. Date points represent the mean of duplicate wells.\nTwo experiments were performed to rule out the possibility that 4-PBA is simply toxic to the cells and inhibits HCMV indirectly by reducing cell viability (FIG. 11). In the first experiment (FIG. 11A) an assay for cell viability was performed on confluent human fibroblasts treated for eight days with different concentrations of the drug. The highest dose of the drug tested had no effect on cellular viability in the trypan blue exclusion assay. […] Then the drug was removed and the yield of virus was determined 8 days later."}, "HCMV strain AD169": {"tested_on": "HCMV strain AD169", "assay": "HCMV AD169 replication in human fibroblasts with 4-PBA alone or with mTOR inhibitors, TCID50", "type": "cell-based, human cytomegalovirus"}, "HCMV [2]": {"tested_on": "HCMV", "assay": "HCMV yield in MRC5 fibroblasts at 96 hours post-infection (mTOR inhibitors)", "type": "cell-based, human cytomegalovirus", "conditions": "0.5 pfu/cell, up to 5 μM"}, "PI3Ks": {"tested_on": "PI3Ks", "conditions": "cited from earlier work"}, "mTOR": {"target": "mTOR (Homo sapiens, UniProt P42345)", "conditions": "read-out: IC50 (selective mTOR inhibitors); cited from earlier work"}, "[3]": {"tested_on": "panel of 140 protein kinases", "conditions": "read-out: IC50 against panel of 140 protein kinases; cited from earlier work"}, "MCMV": {"tested_on": "MCMV", "assay": "MCMV replication in mouse embryo fibroblasts, TCID50", "type": "cell-based, murine cytomegalovirus", "conditions": "wild-type MEFs; rapamycin 20 nM, Torin1 250 nM; 0.05 PFU/cell"}, "HCMV [4]": {"tested_on": "HCMV", "assay": "HCMV multistep growth in serum-starved human fibroblasts, cell-free virus by TCID50", "type": "cell-based, human cytomegalovirus", "conditions": "day 10; rapamycin 20 nM, Torin1 250 nM; 0.05 PFU/cell"}}, "note": "Entries after “also recorded” stand apart in the source; their conditions may differ.", "data": [{"smiles": "O=C([O-])CCCc1ccccc1.[Na+]", "note": "[4-PBA, sodium 4-phenylbutyrate]", "values": [{"measurement": "cellular viability, trypan blue exclusion assay", "setting": "[1]", "value": "no effect"}, {"measurement": "virus yield 8 days after drug removal", "setting": "HCMV strain AD169; all doses tested, 8-day treatment, 16 days post infection", "value": "recovered and produced a normal yield"}, {"measurement": "HCMV virus replication", "setting": "HCMV strain AD169; dose-dependent, day 8 post infection, 0.1 pfu/cell", "value": "effectively inhibited; also recorded: inhibited virus production"}]}, {"smiles": "Cn1c(=O)n(-c2ccc(C(C)(C)C#N)cc2)c2c3cc(-c4cnc5ccccc5c4)ccc3ncc21", "note": "[BEZ235]", "values": [{"measurement": "HCMV virus production (yield as percentage of untreated cells)", "setting": "HCMV [2]", "value": "inhibit virus production"}]}, {"smiles": "CC(C)n1nc(-c2ccc3oc(N)nc3c2)c2c(N)ncnc21", "note": "[INK128]", "values": [{"measurement": "HCMV virus production (yield as percentage of untreated cells)", "setting": "HCMV [2]", "value": "inhibit virus production"}]}, {"smiles": "COc1cc(-c2cn(-c3nc(N4CCOCC4)nc(N4CCOCC4)n3)cn2)cc(OC)c1O", "note": "[KU-BMCL-200908069-5]", "values": [{"measurement": "fold selective versus PI3Ks (PI3K)", "setting": "PI3Ks", "value": "> 500", "unit": "fold"}]}, {"smiles": "CNC(=O)Nc1ccc(-c2nc(N3C[C@H]4CC[C@@H](C3)O4)c3cnn(C4CCC5(CC4)OCCO5)c3n2)cc1", "note": "[WYE-125132]", "values": [{"measurement": "fold selective versus PI3Ks (PI3K)", "setting": "PI3Ks", "value": "> 5,000 fold"}, {"measurement": "IC50", "setting": "mTOR", "value": 0.19, "unit": "nM"}]}, {"smiles": "O=C(Nc1ccc(-c2nc(N3CC4CCC(C3)O4)c3sccc3n2)cc1)NC1CC1", "note": "[Wyeth-BMCL-200910075-9b]", "values": [{"measurement": "fold selective versus PI3Ks (PI3K)", "setting": "PI3Ks", "value": "> 1,000 fold"}, {"measurement": "IC50", "setting": "mTOR", "value": 0.7, "unit": "nM"}]}, {"smiles": "CN1CCN(C(=O)c2ccc(NC(=O)Nc3ccc(-c4nc(N5CCOCC5)cc(N5C[C@H]6CC[C@@H](C5)O6)n4)cc3)cc2)CC1", "note": "[Wyeth—Compound 27]", "values": [{"measurement": "HCMV virus production (yield as percentage of untreated cells)", "setting": "HCMV [2]", "value": "inhibit virus production"}]}, {"smiles": "Cc1c(C(=O)N2CCOc3ccc(-c4ccc(N)nc4)cc3C2)ccc(S(C)(=O)=O)c1F", "note": "[XL388]", "values": [{"measurement": "IC50", "setting": "[3]", "value": "> 3000", "unit": "nM"}]}, {"smiles": "CO[C@H]1C[C@@H]2CC[C@@H](C)[C@@](O)(O2)C(=O)C(=O)N2CCCC[C@H]2C(=O)O[C@H]([C@H](C)C[C@@H]2CC[C@@H](O)[C@H](OC)C2)CC(=O)[C@H](C)/C=C(\\C)[C@@H](O)[C@@H](OC)C(=O)[C@H](C)C[C@H](C)/C=C/C=C/C=C/1C", "note": "[rapamycin]", "values": [{"measurement": "MCMV replication", "setting": "MCMV", "value": "no inhibitory effect"}, {"measurement": "reduction of HCMV yield", "setting": "HCMV [4]", "value": "~8", "unit": "fold"}]}]}
